Reference: US10738015B2, “1,3-diaza-spiro-[3.4]-octane derivatives” (priority 2017, dated 2020)
Like-named read-outs stand apart in the source and are kept apart here.

Experiments:
[1] = target: human mu-opioid peptide (hMOP) receptor (Homo sapiens (Human), UniProt P35372); experiment: hMOP receptor binding assay (SPA)
Experimental: Human Mu-Opioidpeptide (hMOP) Receptor Binding Assay
The hMOP receptor binding assay was performed as homogeneous SPA-assay (scintillation proximity assay) using the assay buffer 50 mM TRIS-HCl (pH 7.4) supplemented with 0.052 mg/ml bovine serum albumin (Sigma-Aldrich Co. St. Louis, Mo.). […] The assay was started by adding wheat germ agglutinin coated SPA beads (GE Healthcare UK Ltd. Buckinghamshire. UK) which had been preloaded with hMOP receptor membranes (PerkinElmer Life Sciences. Inc. Boston, Mass. USA).

[2] = target: human nociceptin/orphanin FQ peptide (hNOP) receptor (Homo sapiens (Human), UniProt P41146); experiment: hNOP receptor binding assay (SPA)
Experimental: Human Nociceptin/Orphanin FQ Peptide (hNOP) Receptor Binding Assay
The hNOP receptor binding assay was performed as homogeneous SPA-assay (scintillation proximity assay) using the assay buffer 50 mM TRIS-HCl, 10 mM MgCl2, 1 mM EDTA (pH 7.4). The final assay volume (250 μl/well) included 0.5 nM of [leucyl-^3H]nociceptin as ligand (PerkinElmer Life Sciences. Inc. Boston, Mass. USA) and either test compound in dilution series or 1 μM unlabelled nociceptin for determination of unspecific binding. The test compound was diluted with 25% DMSO in H2O to yield a final 0.5% DMSO concentration which also served as a respective vehicle control. The assay was started by adding wheat germ agglutinin coated SPA beads (GE Healthcare UK Ltd. Buckinghamshire. UK) which had been preloaded with hNOP receptor membranes (PerkinElmer Life Sciences. Inc. Boston, Mass. USA). After incubation for 60 minutes at RT and centrifugation for 20 minutes at 500 rpm the signal rate was measured by means of a 1450 Microbeta Trilux ß-counter (PerkinElmer Life Sciences/Wallac. Turku. Finland). Half-maximal inhibitory concentration (IC50) values reflecting 50% displacement of [^3H]nociceptin-specific receptor binding were calculated by nonlinear regression analysis and Ki values were calculated by using the Cheng-Prusoff equation. (Cheng and Prusoff. 1973).

[3] = read-out: hMOP Ki [nM] or % inhibition at 1 μM
[4] = Ki, displacement of [leucyl-3H]nociceptin, hNOP receptor membranes, read-out: hNOP Ki [nM] or % inhibition at 1 μM
[5] = Ki, displacement of [3H]naloxone, hMOP receptor membranes, read-out: hMOP Ki [nM] or % inhibition at 1 μM

Chain of human mu-opioid peptide (hMOP) receptor (P35372 whole entry): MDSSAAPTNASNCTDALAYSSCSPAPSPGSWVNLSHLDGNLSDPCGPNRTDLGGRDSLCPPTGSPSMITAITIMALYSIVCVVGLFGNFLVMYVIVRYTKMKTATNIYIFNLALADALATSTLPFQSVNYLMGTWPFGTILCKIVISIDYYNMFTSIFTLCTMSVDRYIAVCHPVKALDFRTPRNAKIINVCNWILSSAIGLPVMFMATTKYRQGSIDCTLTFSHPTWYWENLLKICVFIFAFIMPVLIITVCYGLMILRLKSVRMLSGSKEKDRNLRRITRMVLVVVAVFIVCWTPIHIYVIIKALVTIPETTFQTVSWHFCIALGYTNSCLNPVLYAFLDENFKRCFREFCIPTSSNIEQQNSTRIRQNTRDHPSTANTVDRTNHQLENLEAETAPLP

| Structure (SMILES) | inhibition at 1 µM [1, 3] | Ki [2, 4] | Ki [2] | Ki [1, 5] | Ki [1] |
| --- | --- | --- | --- | --- | --- |
| CN(C)[C@]1(c2ccccc2)C[C@@]2(CN(CC(N)=O)C(=O)N2)C1 [SC-1, Cis-2-(2-(dimethylamino)-6-oxo-2-phenyl-5,7-diazaspiro[3.4]octan-7-yl)acetamide] | 19% | 200 nM | – | – | – |
| CN(C)[C@]1(c2ccccc2)C[C@@]2(CN(CC(=O)N3CCS(=O)(=O)CC3)C(=O)N2)C1 [SC-2, cis-2-(dimethylamino)-7-(2-(1,1-dioxidothiomorpholino)-2-oxoethyl)-2-phenyl-5,7-diazaspiro[3.4]octan-6-one] | 12% | 850 nM | – | – | – |
| COc1nc(C#N)ncc1N1C[C@]2(C[C@](c3ccccc3)(N(C)C)C2)NC1=O [SC-3, Cis-5-(2-(dimethylamino)-6-oxo-2-phenyl-5,7-diazaspiro[3.4]octan-7-yl)-4-methoxypyrimidine-2-carbonitrile] | – | – | 370 nM | – | – |
| CN(C)[C@]1(c2ccccc2)C[C@]2(CN(CC(=O)N3CCS(=O)(=O)CC3)C(=O)N2)C1 [SC-4, trans-2-(dimethylamino)-7-(2-(1,1-dioxidothiomorpholino)-2-oxoethyl)-2-phenyl-5,7-diazaspiro[3.4]octan-6-one] | – | 860 nM | – | 15 nM | – |
| COc1nc(C#N)ncc1N1C[C@]2(C[C@@](c3ccccc3)(N(C)C)C2)NC1=O [SC-5, trans-5-(2-(dimethylamino)-6-oxo-2-phenyl-5,7-diazaspiro[3.4]octan-7-yl)-4-methoxypyrimidine-2-carbonitrile] | – | 800 nM | – | 99 nM | – |
| CN(C)[C@]1(c2ccccc2)C[C@@]2(CN(CC(=O)N3CCS(=O)(=O)CC3)C(=O)N2CC2CCC2)C1 [SC-6, Cis-5-(cyclobutylmethyl)-2-(dimethylamino)-7-(2-(1,1-dioxidothiomorpholino)-2-oxoethyl)-2-phenyl-5,7-diazaspiro[3.4]octan-6-one] | – | – | 1 nM | – | – |
| CN(C)[C@]1(c2ccccc2)C[C@]2(CN(CC(=O)N3CCS(=O)(=O)CC3)C(=O)N2CC2CCC2)C1 [SC-7, trans-5-(cyclobutylmethyl)-2-(dimethylamino)-7-(2-(1,1-dioxidothiomorpholino)-2-oxoethyl)-2-phenyl-5,7-diazaspiro[3.4]octan-6-one] | – | 230 nM | – | 2 nM | – |
| CN(C)[C@]1(c2ccccc2)C[C@]2(CN(CC(N)=O)C(=O)N2CC2CCC2)C1 [SC-8, cis-2-(5-(cyclobutylmethyl)-2-(dimethylamino)-6-oxo-2-phenyl-5,7-diazaspiro[3.4]octan-7-yl)acetamide] | – | 3 nM | – | 100 nM | – |
| CN(C)[C@]1(c2ccccc2)C[C@]2(CN(CC(N)=O)C(=O)N2CC2CCC2)C1 [SC-9, Trans-2-(5-(cyclobutylmethyl)-2-(dimethylamino)-6-oxo-2-phenyl-5,7-diazaspiro[3.4]octan-7-yl)acetamide] | – | 380 nM | – | – | 48 nM |
| COc1nc(C#N)ncc1N1C[C@]2(C[C@](c3ccccc3)(N(C)C)C2)N(CC2CCC2)C1=O [SC-10, cis-5-(5-(cyclobutylmethyl)-2-(dimethylamino)-6-oxo-2-phenyl-5,7-diazaspiro[3.4]octan-7-yl)-4-methoxypyrimidine-2-carbonitrile] | – | 2 nM | – | 157 nM | – |
| COc1nc(C#N)ncc1N1C[C@]2(C[C@@](c3ccccc3)(N(C)C)C2)N(CC2CCC2)C1=O [SC-11, trans-5-(5-(cyclobutylmethyl)-2-(dimethylamino)-6-oxo-2-phenyl-5,7-diazaspiro[3.4]octan-7-yl)-4-methoxypyrimidine-2-carbonitrile] | – | 99 nM | – | 3 nM | – |
| Cc1nc(N2CCOCC2)ncc1N1C[C@]2(C[C@](c3ccccc3)(N(C)C)C2)NC1=O [SC-12, cis-2-(dimethylamino)-7-(4-methyl-2-morpholinopyrimidin-5-yl)-2-phenyl-5,7-diazaspiro[3.4]octan-6-one] | 13% | 630 nM | – | – | – |
| Cc1cc(N2CCC2)ncc1N1C[C@]2(C[C@](c3ccccc3)(N(C)C)C2)NC1=O [SC-13, cis-7-(6-(azetidin-1-yl)-4-methylpyridin-3-yl)-2-(dimethylamino)-2-phenyl-5,7-diazaspiro[3.4]octan-6-one] | 18% | 860 nM | – | – | – |
| Cc1cc(C#N)ncc1N1C[C@]2(C[C@](c3cccc(F)c3)(N(C)C)C2)N(CC2CC2)C1=O [SC-15, cis-5-(5-(cyclopropylmethyl)-2-(dimethylamino)-2-(3-fluorophenyl)-6-oxo-5,7-diazaspiro[3.4]octan-7-yl)-4-methylpicolinonitrile] | – | – | 13 nM | 1330 nM | – |
| Cc1cc(C#N)cnc1N1C[C@]2(C[C@](c3cccc(F)c3)(N(C)C)C2)N(CC2CC2)C1=O [SC-16, Cis-6-(5-(cyclopropylmethyl)-2-(dimethylamino)-2-(3-fluorophenyl)-6-oxo-5,7-diazaspiro[3.4]octan-7-yl)-5-methylnicotinonitrile] | – | 31 nM | – | 1320 nM | – |
| CN(C)[C@]1(c2cccc(F)c2)C[C@@]2(CN(c3ccc(OC(F)(F)F)cn3)C(=O)N2CC2CC2)C1 [SC-18, Cis-5-(cyclopropylmethyl)-2-(dimethylamino)-2-(3-fluorophenyl)-7-(5-(trifluoromethoxy)pyridin-2-yl)-5,7-diazaspiro[3.4]octan-6-one] | – | 55 nM | – | 805 nM | – |
| Cc1cc(N2CCOCC2)ncc1N1C[C@]2(C[C@](c3ccccc3)(N(C)C)C2)NC1=O [SC-19, Cis-2-(dimethylamino)-7-(4-methyl-6-morpholinopyridin-3-yl)-2-phenyl-5,7-diazaspiro[3.4]octan-6-one] | – | 1810 nM | – | 5890 nM | – |
| Cc1cc(C(C)(C)O)ncc1N1C[C@]2(C[C@](c3ccccc3)(N(C)C)C2)NC1=O [SC-20, Cis-2-(dimethylamino)-7-(6-(2-hydroxypropan-2-yl)-4-methylpyridin-3-yl)-2-phenyl-5,7-diazaspiro[3.4]octan-6-one] | – | 1160 nM | – | 5840 nM | – |
| Cc1cc(C(C)(C)O)ccc1N1C[C@]2(C[C@](c3ccccc3)(N(C)C)C2)NC1=O [SC-21, Cis-2-(dimethylamino)-7-(4-(2-hydroxypropan-2-yl)-2-methylphenyl)-2-phenyl-5,7-diazaspiro[3.4]octan-6-one] | – | 775 nM | – | 3580 nM | – |
| Cc1cc(C(F)F)ncc1N1C[C@]2(C[C@](c3cccc(F)c3)(N(C)C)C2)NC1=O [SC-22, cis-7-(6-(difluoromethyl)-4-methylpyridin-3-yl)-2-(dimethylamino)-2-(3-fluorophenyl)-5,7-diazaspiro[3.4]octan-6-one] | 11% | 380 nM | – | – | – |
| CN(C)[C@]1(c2cccc(F)c2)C[C@@]2(CN(c3ccc(OC(F)(F)F)cn3)C(=O)N2CC2(F)COC2)C1 [SC-23, Cis- -2-(dimethylamino)-5-((3-fluorooxetan-3-yl)methyl)-2-(3-fluorophenyl)-7-(5-(trifluoromethoxy)pyridin-2-yl)-5,7-diazaspiro[3.4]octan-6-one] | – | 25 nM | – | 545 nM | – |
| Cc1cc(C(F)F)ncc1N1C[C@]2(C[C@](c3cccc(F)c3)(N(C)C)C2)N(CC2CC2)C1=O [SC-24, Cis-5-(cyclopropylmethyl)-7-(6-(difluoromethyl)-4-methylpyridin-3-yl)-2-(dimethylamino)-2-(3-fluorophenyl)-5,7-diazaspiro[3.4]octan-6-one] | – | 23 nM | – | 1180 nM | – |
| CN(C)[C@]1(c2cccc(F)c2)C[C@@]2(CN(c3ccc(OC(F)(F)F)cn3)C(=O)N2CC2(F)CC2)C1 [SC-26, Cis-2-(dimethylamino)-5-((1-fluorocyclopropyl)methyl)-2-(3-fluorophenyl)-7-(5-(trifluoromethoxy)pyridin-2-yl)-5,7-diazaspiro[3.4]octan-6-one] | – | 91 nM | – | 1020 nM | – |
| CN(C)[C@]1(c2cccc(F)c2)C[C@@]2(CN(c3ccc(OC(F)(F)F)cn3)C(=O)N2CC2(O)CCC2)C1 [SC-27, Cis-2-(dimethylamino)-2-(3-fluorophenyl)-5-((1-hydroxycyclobutyl)methyl)-7-(5-(trifluoromethoxy)pyridin-2-yl)-5,7-diazaspiro[3.4]octan-6-one] | – | 12 nM | – | 335 nM | – |
| CN(C)[C@]1(c2cccc(F)c2)C[C@@]2(CN(c3ccc(C(C)(C)O)cc3)C(=O)N2CC2CC2)C1 [SC-28, Cis-5-(cyclopropylmethyl)-2-(dimethylamino)-2-(3-fluorophenyl)-7-(4-(2-hydroxypropan-2-yl)phenyl)-5,7-diazaspiro[3.4]octan-6-one] | – | 46 nM | – | 78 nM | – |
| CN(C)[C@]1(c2ccccc2)C[C@@]2(CN(c3ccc(OC(F)(F)F)cn3)C(=O)N2CC2(F)COC2)C1 [SC-29, Cis-2-(dimethylamino)-5-((3-fluorooxetan-3-yl)methyl)-2-phenyl-7-(5-(trifluoromethoxy)pyridin-2-yl)-5,7-diazaspiro[3.4]octan-6-one] | – | 16 nM | – | 65 nM | – |
